Reference: BigSolDB 2.1

Cc1[nH]nc2cc([N+](=O)[O-])ccc12
solubility (mole fraction) (in ethanol, 278.15 K): 0.00471 | solubility (mole fraction) (in ethanol, 283.15 K): 0.00539 | solubility (mole fraction) (in ethanol, 288.15 K): 0.00619 | solubility (mole fraction) (in ethanol, 293.15 K): 0.0073 | solubility (mole fraction) (in ethanol, 298.15 K): 0.00866 | solubility (mole fraction) (in ethanol, 303.15 K): 0.0102 | solubility (mole fraction) (in ethanol, 308.15 K): 0.0118 | solubility (mole fraction) (in ethanol, 313.15 K): 0.0137 | solubility (mole fraction) (in ethanol, 318.15 K): 0.016 | solubility (mole fraction) (in ethanol, 323.15 K): 0.019 | solubility (mole fraction) (in ethanol, 328.15 K): 0.022 | solubility (mole fraction) (in n-propanol, 278.15 K): 0.0051 | solubility (mole fraction) (in n-propanol, 283.15 K): 0.00574 | solubility (mole fraction) (in n-propanol, 288.15 K): 0.00682 | solubility (mole fraction) (in n-propanol, 293.15 K): 0.00793 | solubility (mole fraction) (in n-propanol, 298.15 K): 0.00901 | solubility (mole fraction) (in n-propanol, 303.15 K): 0.0103 | solubility (mole fraction) (in n-propanol, 308.15 K): 0.0118 | solubility (mole fraction) (in n-propanol, 313.15 K): 0.0133 | solubility (mole fraction) (in n-propanol, 318.15 K): 0.0149 | solubility (mole fraction) (in n-propanol, 323.15 K): 0.017 | solubility (mole fraction) (in n-propanol, 328.15 K): 0.0194 | solubility (mole fraction) (in water, 278.15 K): 2.06e-05 | solubility (mole fraction) (in water, 283.15 K): 2.7e-05 | solubility (mole fraction) (in water, 288.15 K): 3.52e-05 | solubility (mole fraction) (in water, 293.15 K): 4.67e-05 | solubility (mole fraction) (in water, 298.15 K): 6.15e-05 | solubility (mole fraction) (in water, 303.15 K): 7.91e-05 | solubility (mole fraction) (in water, 308.15 K): 9.98e-05 | solubility (mole fraction) (in water, 313.15 K): 0.000123 | solubility (mole fraction) (in water, 318.15 K): 0.000151 | solubility (mole fraction) (in water, 323.15 K): 0.000182 | solubility (mole fraction) (in water, 328.15 K): 0.000222
